Experimental findings from patent publication US20250282799A1, “SUBSTITUTED PYRIDO[4,3-d]PYRIMIDINES AS KRAS MODULATORS” (Alterome Therapeutics, Inc., priority 2023, published 2025) are described below.

The structures appear in SMILES notation.

The assay relates to KRAS G12V dependent lung adenocarcinoma cell line, NCI-H441. Nature of the assay: Cellular pERK (Thr202/Tyr204) FRET/HTRF assay. The assay is classed as cell-based. The settings on record: Homo sapiens, NCI-H441, cellular pERK (Thr202/Tyr204) HTRF, NCI-H441 cells. The method in brief:
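NCI-H441, overnight plating → cpd 1 hr, 37 °C/5% CO2; DMSO neg ctrl. Lyse (phosphatase inhibitors), add donor/acceptor Abs, RT incubation, HTRF read. IC50 by curve fit.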
For orientation: In TR-FRET formats the signal depends on donor and acceptor labels being close together.
Regarding `Nc1cc(Cl)c(C(F)(F)F)c(-c2ncc3c(N4CCCC[C@@H]5[C@@H](F)[C@@H]54)nc(OC[C@@]45CCCN4CC(=C(F)F)C5)nc3c2F)c1` [Example 370, 3-chloro-5-(2-(((S)-2-(difluoromethylene)tetrahydro-1H-pyrrolizin-7a(5H)-yl)methoxy)-8-fluoro-4-((1R,7S,8R)-8-fluoro-2-azabicyclo[5.1.0]octan-2-yl)pyrido[4,3-d]pyrimidin-7-yl)-4-(trifluoromethyl)aniline], the IC50 lay within 500 to 10000 nM.
Turning to `Nc1cc(Cl)c(C(F)(F)F)c(-c2ncc3c(N4CCCC[C@H]5[C@H](F)[C@H]54)nc(OC[C@@]45CCCN4C/C(=C/F)C5)nc3c2F)c1` [Example 371, 3-chloro-5-(8-fluoro-4-((1S,7R,8S)-8-fluoro-2-azabicyclo[5.1.0]octan-2-yl)-2-(((S,E)-2-(fluoromethylene)tetrahydro-1H-pyrrolizin-7a(5H)-yl)methoxy)pyrido[4,3-d]pyrimidin-7-yl)-4-(trifluoromethyl)aniline], the IC50 was under 50 nM.
On to `Nc1cc(Cl)c(C(F)(F)F)c(-c2ncc3c(N4CCCC[C@@H]5[C@@H](F)[C@@H]54)nc(OC[C@@]45CCCN4C/C(=C/F)C5)nc3c2F)c1` [Example 372, 3-chloro-5-(8-fluoro-4-((1R,7S,8R)-8-fluoro-2-azabicyclo[5.1.0]octan-2-yl)-2-(((S,E)-2-(fluoromethylene)tetrahydro-1H-pyrrolizin-7a(5H)-yl)methoxy)pyrido[4,3-d]pyrimidin-7-yl)-4-(trifluoromethyl)aniline], for which the IC50 lay in the range of 500 to 10000 nM.
Compound `Nc1cc(Cl)c(C(F)(F)F)c(-c2ncc3c(N4CCCC[C@H]5[C@H](F)[C@H]54)nc(OC[C@@]45CCCN4C/C(=C\F)C5)nc3c2F)c1` [Example 373, 3-chloro-5-(8-fluoro-4-((1S,7R,8S)-8-fluoro-2-azabicyclo[5.1.0]octan-2-yl)-2-(((S,Z)-2-(fluoromethylene)tetrahydro-1H-pyrrolizin-7a(5H)-yl)methoxy)pyrido[4,3-d]pyrimidin-7-yl)-4-(trifluoromethyl)aniline] gave an IC50 of under 50 nM.
On to `Nc1cc(Cl)c(C(F)(F)F)c(-c2ncc3c(N4CCCC[C@@H]5[C@@H](F)[C@@H]54)nc(OC[C@@]45CCCN4C/C(=C\F)C5)nc3c2F)c1` [Example 374, 3-chloro-5-(8-fluoro-4-((1R,7S,8R)-8-fluoro-2-azabicyclo[5.1.0]octan-2-yl)-2-(((S,Z)-2-(fluoromethylene)tetrahydro-1H-pyrrolizin-7a(5H)-yl)methoxy)pyrido[4,3-d]pyrimidin-7-yl)-4-(trifluoromethyl)aniline], for which the half-maximal inhibitory concentration (IC50) is 500 to 10000 nM.
For `C#Cc1c(F)ccc2cccc(-c3ncc4c(N5CCOC[C@H]6[C@H](F)[C@H]65)nc(OC[C@]56C/C(=C\F)CN5CCC65CC5)nc4c3F)c12` [Example 375, (1S,7S,8S)-2-(7-(8-Ethynyl-7-fluoronaphthalen-1-yl)-8-fluoro-2-(((R,E)-6′-(fluoromethylene)tetrahydrospiro[cyclopropane-1,1′-pyrrolizin]-7a′(5′H)-yl)methoxy)pyrido[4,3-d]pyrimidin-4-yl)-8-fluoro-5-oxa-2-azabicyclo[5.1.0]octane] the value was under 50 nM; for `C#Cc1c(F)ccc2cccc(-c3ncc4c(N5CCOC[C@H]6[C@H](F)[C@H]65)nc(OC[C@]56C/C(=C/F)CN5CCC65CC5)nc4c3F)c12` [Example 376, (1S,7S,8S)-2-(7-(8-Ethynyl-7-fluoronaphthalen-1-yl)-8-fluoro-2-(((R,Z)-6′-(fluoromethylene)tetrahydrospiro[cyclopropane-1,1′-pyrrolizin]-7a′(5′H)-yl)methoxy)pyrido[4,3-d]pyrimidin-4-yl)-8-fluoro-5-oxa-2-azabicyclo[5.1.0]octane], under 50 nM.
For `C#Cc1c(F)ccc2cccc(-c3ncc4c(N5CCCC[C@H]6[C@H](F)[C@H]65)nc(OC[C@]56C/C(=C\F)CN5CCC65CC5)nc4c3F)c12` [Example 377, (R,E)-7a′-(((7-(8-ethynyl-7-fluoronaphthalen-1-yl)-8-fluoro-4-((1S,7R,8S)-8-fluoro-2-azabicyclo[5.1.0]octan-2-yl)pyrido[4,3-d]pyrimidin-2-yl)oxy)methyl)-6′-(fluoromethylene)hexahydrospiro[cyclopropane-1,1′-pyrrolizine]] the value was under 50 nM; for `Nc1cc(Cl)c(C(F)(F)F)c(-c2ncc3c(N4CCCC[C@H]5[C@H](F)[C@H]54)nc(OC[C@]45C/C(=C\F)CN4CCC54CC4)nc3c2F)c1` [Example 378, 3-chloro-5-(8-fluoro-4-((1S,7R,8S)-8-fluoro-2-azabicyclo[5.1.0]octan-2-yl)-2-(((R,E)-6′-(fluoromethylene)tetrahydrospiro[cyclopropane-1,1′-pyrrolizin]-7a′(5′H)-yl)methoxy)pyrido[4,3-d]pyrimidin-7-yl)-4-(trifluoromethyl)aniline], 50 to 500 nM; for `C=C1CN2CCC3(CC3)[C@@]2(COc2nc(N3CCCC[C@H]4[C@H](F)[C@H]43)c3cnc(-c4cc(N)c(F)c(C)c4C(F)(F)F)c(F)c3n2)C1` [Example 379, 2-fluoro-5-(8-fluoro-4-((1S,7R,8S)-8-fluoro-2-azabicyclo[5.1.0]octan-2-yl)-2-(((R)-6′-methylenetetrahydrospiro[cyclopropane-1,1′-pyrrolizin]-7a′(5′H)-yl)methoxy)pyrido[4,3-d]pyrimidin-7-yl)-3-methyl-4-(trifluoromethyl)aniline], 50 to 500 nM.
In turn, `Cc1c(F)c(N)cc(-c2ncc3c(N4CCCC[C@H]5[C@H](F)[C@H]54)nc(OC[C@]45C/C(=C\F)CN4CCC54CC4)nc3c2F)c1C(F)(F)F` [Example 380, 2-fluoro-5-(8-fluoro-4-((1S,7R,8S)-8-fluoro-2-azabicyclo[5.1.0]octan-2-yl)-2-(((R,E)-6′-(fluoromethylene)tetrahydrospiro[cyclopropane-1,1′-pyrrolizin]-7a′(5′H)-yl)methoxy)pyrido[4,3-d]pyrimidin-7-yl)-3-methyl-4-(trifluoromethyl)aniline] registered a 50% inhibitory concentration (IC50) of 50 to 500 nM.
The same measure for `Cc1c(F)c(N)cc(-c2ncc3c(N4CCCC[C@H]5[C@H](F)[C@H]54)nc(OC[C@]45C/C(=C/F)CN4CCC54CC4)nc3c2F)c1C(F)(F)F` [Example 381, 2-fluoro-5-(8-fluoro-4-((1S,7R,8S)-8-fluoro-2-azabicyclo[5.1.0]octan-2-yl)-2-(((R,Z)-6′-(fluoromethylene)tetrahydrospiro[cyclopropane-1,1′-pyrrolizin]-7a′(5′H)-yl)methoxy)pyrido[4,3-d]pyrimidin-7-yl)-3-methyl-4-(trifluoromethyl)aniline]: 50 to 500 nM.
The same measure for `[2H]C([2H])(F)Oc1c(F)ccc2cccc(-c3ncc4c(N5CCCC[C@H]6[C@H](F)[C@H]65)nc(OC[C@]56C/C(=C\F)CN5CCC65CC5)nc4c3F)c12` [Example 382, (R,E)-7a′-(((8-fluoro-7-(7-fluoro-8-(fluoromethoxy-d2)naphthalen-1-yl)-4-((1S,7R,8S)-8-fluoro-2-azabicyclo[5.1.0]octan-2-yl)pyrido[4,3-d]pyrimidin-2-yl)oxy)methyl)-6′-(fluoromethylene)hexahydrospiro [cyclopropane-1,1′-pyrrolizine]]: under 50 nM; for `[2H]C([2H])(F)Oc1c(F)ccc2cc(N)cc(-c3ncc4c(N5CCCC[C@H]6[C@H](F)[C@H]65)nc(OC[C@]56C/C(=C\F)CN5CCC65CC5)nc4c3F)c12` [Example 383, 6-fluoro-4-(8-fluoro-4-((1S,7R,8S)-8-fluoro-2-azabicyclo[5.1.0]octan-2-yl)-2-(((R,E)-6′-(fluoromethylene)tetrahydrospiro[cyclopropane-1,1′-pyrrolizin]-7a′(5′H)-yl)methoxy)pyrido[4,3-d]pyrimidin-7-yl)-5-(fluoromethoxy-d2)naphthalen-2-amine]: under 50 nM.
The same measure for `[2H]C([2H])(F)Oc1c(F)ccc2cccc(-c3ncc4c(N5CCOC[C@H]6[C@H](F)[C@H]65)nc(OC[C@]56CC(=C)CN5CCC65CC5)nc4c3F)c12` [Example 384, (1S,7S,8S)-8-fluoro-2-(8-fluoro-7-(7-fluoro-8-(fluoromethoxy-d2)naphthalen-1-yl)-2-(((R)-6′-methylenetetrahydrospiro[cyclopropane-1,1′-pyrrolizin]-7a′(5′H)-yl)methoxy)pyrido[4,3-d]pyrimidin-4-yl)-5-oxa-2-azabicyclo[5.1.0]octane]: under 50 nM; for `[2H]C([2H])(F)Oc1c(F)ccc2cccc(-c3ncc4c(N5CCOC[C@H]6[C@H](F)[C@H]65)nc(OC[C@]56C/C(=C\F)CN5CCC65CC5)nc4c3F)c12` [Example 385, (1S,7S,8S)-8-fluoro-2-(8-fluoro-7-(7-fluoro-8-(fluoromethoxy-d2)naphthalen-1-yl)-2-(((R,E)-6′-(fluoromethylene)tetrahydrospiro[cyclopropane-1,1′-pyrrolizin]-7a′(5′H)-yl)methoxy)pyrido[4,3-d]pyrimidin-4-yl)-5-oxa-2-azabicyclo[5.1.0]octane]: under 50 nM; for `[2H]C([2H])(F)Oc1c(F)ccc2cccc(-c3ncc4c(N5CCOC[C@H]6[C@H](F)[C@H]65)nc(OC[C@]56C/C(=C/F)CN5CCC65CC5)nc4c3F)c12` [Example 386, (1S,7S,8S)-8-fluoro-2-(8-fluoro-7-(7-fluoro-8-(fluoromethoxy-d2)naphthalen-1-yl)-2-(((R,Z)-6′-(fluoromethylene)tetrahydrospiro[cyclopropane-1,1′-pyrrolizin]-7a′(5′H)-yl)methoxy)pyrido[4,3-d]pyrimidin-4-yl)-5-oxa-2-azabicyclo[5.1.0]octane]: under 50 nM.

A word on the IC50: it is the concentration at which inhibition is half-maximal.
